Laboratory results: ChEMBL document CHEMBL5380807, “Imidazo[1,2-a]Pyridine Derivatives as Novel Dual-Target Inhibitors of ABCB1 and ABCG2 for Reversing Multidrug Resistance” (J Med Chem, 2023)

Experiments:
[1] = Cytotoxicity against human K562/A02 cells overexpressing ABCB1 assessed as decrease in cell survival rate incubated for 72 hrs by MTS assay; format: toxicity, cell-based
[2] = Cytotoxicity against human K562 cells assessed as decrease in cell survival rate incubated for 72 hrs by MTS assay; format: toxicity, cell-based

| SMILES | IC50 at 72 h [1] [µM] | IC50 at 72 h [2] [µM] |
| --- | --- | --- |
| COc1cc2c(cc1OC)CN(Cc1c(-c3ccc(NC(=O)/C=C/c4cc(OC)c(OC)c(OC)c4)cc3)nc3ccccn13)CC2 | > 100 | > 100 |
| Cc1ccc(/C=C/C(=O)Nc2ccc(-c3nc4ccccn4c3CN3CCN(c4ccccc4)CC3)cc2)cc1 | > 100 | 32.8 |
| COc1cc2c(cc1OC)CN(Cc1c(-c3ccc(NC(=O)Cn4cnnc4)cc3)nc3ccccn13)CC2 | > 100 | > 100 |
| COc1cc2c(cc1OC)CN(Cc1c(-c3ccc(NC(=O)CN4CCOCC4)cc3)nc3ccccn13)CC2 | > 100 | > 100 |
| O=C(CCn1cnnc1)Nc1ccc(-c2nc3ccccn3c2CN2CCN(c3ccccc3)CC2)cc1 | > 100 | > 100 |
| O=C(/C=C/c1ccccc1)Nc1ccc(-c2nc3ccccn3c2CN2CCN(c3ccccc3)CC2)cc1 | > 100 | > 100 |
| COc1cc2c(cc1OC)CN(Cc1c(-c3ccc(NC(=O)CCN4CCN(c5ccccc5)CC4)cc3)nc3ccccn13)CC2 | 30.6 | 93.1 |
| O=C(CN1CCN(c2ccccc2)CC1)Nc1ccc(-c2nc3ccccn3c2CN2CCN(c3ccccc3)CC2)cc1 | > 100 | > 100 |
| O=C1CCN1c1ccc(-c2nc3ccccn3c2CN2CCN(c3ccccc3)CC2)cc1 | 45.5 | 10.5 |
| COc1cc2c(cc1OC)CN(Cc1c(-c3ccc(NC(=O)CN4CCN(c5ccc(OC(F)(F)F)cc5)CC4)cc3)nc3ccccn13)CC2 | 81.2 | 83.7 |
| COc1cc2c(cc1OC)CN(Cc1c(-c3ccc(NC(=O)COc4ccc(OC(F)(F)F)cc4)cc3)nc3ccccn13)CC2 | 40.9 | 29.9 |
| COc1cccc(OCC(=O)Nc2ccc(-c3nc4ccccn4c3CN3CCc4cc(OC)c(OC)cc4C3)cc2)c1 | > 100 | > 100 |
| C=CCc1ccc(OCC(=O)Nc2ccc(-c3nc4ccccn4c3CN3CCc4cc(OC)c(OC)cc4C3)cc2)c(OC)c1 | > 100 | > 100 |
| O=C1CCCN1c1ccc(-c2nc3ccccn3c2CN2CCN(c3ccccc3)CC2)cc1 | > 100 | > 100 |
| COc1ccc(OCC(=O)Nc2ccc(-c3nc4ccccn4c3CN3CCc4cc(OC)c(OC)cc4C3)cc2)cc1 | > 100 | > 100 |
| COc1cc2c(cc1OC)CN(Cc1c(-c3ccc(NC(=O)CN4CCN(c5ccccc5)CC4)cc3)nc3ccccn13)CC2 | > 100 | > 100 |
| O=C(/C=C/c1ccc(Cl)cc1)Nc1ccc(-c2nc3ccccn3c2CN2CCN(c3ccccc3)CC2)cc1 | > 100 | > 100 |
| COc1cc2c(cc1OC)CN(Cc1c(-c3ccc(NC(=O)CN(C)C)cc3)nc3ccccn13)CC2 | > 100 | > 100 |
| O=C(CN1CCOCC1)Nc1ccc(-c2nc3ccccn3c2CN2CCN(c3ccccc3)CC2)cc1 | > 100 | > 100 |
| Cc1cccc(/C=C/C(=O)Nc2ccc(-c3nc4ccccn4c3CN3CCN(c4ccccc4)CC3)cc2)c1 | > 100 | > 100 |
| COc1cc2c(cc1OC)CN(Cc1c(-c3ccc(NC(=O)CN4CCN(C)CC4)cc3)nc3ccccn13)CC2 | > 100 | 50.7 |
| CCN(CC)CC(=O)Nc1ccc(-c2nc3ccccn3c2CN2CCN(c3ccccc3)CC2)cc1 | 40 | 24.3 |
| COc1cc2c(cc1OC)CN(Cc1c(-c3ccc(NC(=O)COc4cccc5cccnc45)cc3)nc3ccccn13)CC2 | > 100 | > 100 |
| COc1cc2c(cc1OC)CN(Cc1c(-c3ccc(NC(=O)COc4cccc([N+](=O)[O-])c4)cc3)nc3ccccn13)CC2 | > 100 | > 100 |
| CCN(CC)CC(=O)Nc1ccc(-c2nc3ccccn3c2CN2CCc3cc(OC)c(OC)cc3C2)cc1 | > 100 | > 100 |
| CN(C)CC(=O)Nc1ccc(-c2nc3ccccn3c2CN2CCN(c3ccccc3)CC2)cc1 | 51.2 | 25.2 |
